Among the data in PubChem BioAssay (NCI) are TGI values, retold here.

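Growth conditions: 96-well plates. Treatment: test compound, 48 hours, 5 concentrations. Analysis: linear interpolation between bracketing concentrations; unreached endpoints set to highest concentration. TGI marks complete inhibition of growth.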

Among the test systems are BT-549 breast; SK-OV-3 ovarian; MDA-MB-231 breast; HT29 colon; HCT-116 colon; HOP-62 NSCLC; A498 renal; NCI-H226 lung; MDA-MB-435; RPMI-8226 leukemia; RXF 393 renal; MALME-3M melanoma; NCI-H460 lung; HL-60(TB) leukemia.
What all share (test): inhibition of tumour cell growth, NCI panel, 48 h

`COc1ccc2c(c1)C1c3ccccc3CCN1CCC2` (stereo unspecified): the TGI is 68.2 µM with BT-549 breast; > 100 µM in the experiment with SK-OV-3 ovarian; 84.7 µM in the experiment with MDA-MB-231 breast; > 100 µM in the experiment on HT29 colon; > 100 µM with HCT-116 colon; > 100 µM in the experiment on HOP-62 NSCLC. For the same molecule, the TGI was > 100 µM in the experiment on A498 renal; > 100 µM with NCI-H226 lung; 51.1 µM with MDA-MB-435; 96.8 µM in the experiment on RPMI-8226 leukemia; > 100 µM in the experiment with RXF 393 renal.

On to `O=[N+]([O-])c1cc2ccc1OCc1cccc(n1)COc1ccc(cc1[N+](=O)[O-])C=NCCCCCCCCN=C2`, for which the TGI in the experiment with MALME-3M melanoma, in the experiment with BT-549 breast, in the experiment with MDA-MB-231 breast, in the experiment with HT29 colon, in the experiment on HCT-116 colon and with HOP-62 NSCLC was > 100 µM throughout. The TGI with NCI-H460 lung, in the experiment on A498 renal, in the experiment on NCI-H226 lung, in the experiment with MDA-MB-435 and with RPMI-8226 leukemia was > 100 µM throughout.

For the molecule `Nc1ncnc2c1ncn2[C@@H]1C[C@H](NO)[C@@H](O)[C@H]1O`, the TGI in the experiment on MALME-3M melanoma, in the experiment with BT-549 breast, with SK-OV-3 ovarian, with MDA-MB-231 breast, in the experiment on HCT-116 colon and in the experiment with HOP-62 NSCLC was > 100 µM throughout. Besides, the TGI in the experiment on NCI-H460 lung, in the experiment with A498 renal, with NCI-H226 lung, in the experiment with MDA-MB-435, in the experiment on RPMI-8226 leukemia and with RXF 393 renal was > 100 µM throughout.

Take `CCOC(=O)CNC(=O)CNC(=O)CNC(=O)CNNc1c(OCc2ccccc2)c(=O)c1=O`: the TGI in the experiment on MALME-3M melanoma, in the experiment with BT-549 breast, in the experiment with SK-OV-3 ovarian, in the experiment on MDA-MB-231 breast, with HT29 colon and in the experiment on HCT-116 colon was > 100 µM in each case. For the same molecule, the TGI with HOP-62 NSCLC, in the experiment on A498 renal, in the experiment on NCI-H226 lung, in the experiment with MDA-MB-435, in the experiment on RPMI-8226 leukemia and in the experiment on RXF 393 renal was > 100 µM throughout.

Turning to `C=C(C)CCN(C(=O)OC(C)(C)C)c1cc(C(C)C)co1`, the TGI is > 100 µM in the experiment with BT-549 breast; 43.8 µM with HL-60(TB) leukemia; > 100 µM with SK-OV-3 ovarian; > 100 µM in the experiment on MDA-MB-231 breast; > 100 µM with HT29 colon; > 100 µM in the experiment on HCT-116 colon. For the same molecule, the TGI with HOP-62 NSCLC is > 100 µM; in the experiment on A498 renal, > 100 µM; in the experiment with NCI-H226 lung it was > 100 µM; in the experiment with MDA-MB-435 it was > 100 µM; in the experiment on RPMI-8226 leukemia, 57.3 µM.

On to `CCOC(=O)CON=c1c2ccccc2ccc2ccccc12`, for which the TGI in the experiment with MALME-3M melanoma, in the experiment with BT-549 breast, in the experiment on HL-60(TB) leukemia, with SK-OV-3 ovarian, in the experiment with MDA-MB-231 breast and in the experiment on HT29 colon was > 100 µM in each case. Also, the TGI in the experiment with HCT-116 colon, with HOP-62 NSCLC, in the experiment with NCI-H460 lung, in the experiment with NCI-H226 lung, with MDA-MB-435 and in the experiment with RPMI-8226 leukemia was > 100 µM throughout. For the same molecule, the TGI in the experiment on RXF 393 renal was > 100 µM.

For `CC(C)N(C(=O)C12C3(C(=O)C(C)(C)C)C4C5(C#N)C3C1(C(=O)C(C)(C)C)C5C42C(=O)C(C)(C)C)C(C)C` (stereo unspecified), the TGI in the experiment with BT-549 breast, in the experiment with HL-60(TB) leukemia, in the experiment on MDA-MB-231 breast, in the experiment on HT29 colon, in the experiment on HCT-116 colon and in the experiment on HOP-62 NSCLC was > 100 µM in each case. Also, the TGI in the experiment with NCI-H460 lung, with A498 renal, with MDA-MB-435 and with RXF 393 renal was > 100 µM in each case.

`CCC1(CC)C(=O)NN(C(=O)c2ccc(Cl)cc2)C1=O`: the TGI is 18.1 µM in the experiment on MALME-3M melanoma; > 100 µM in the experiment with BT-549 breast; > 100 µM with HL-60(TB) leukemia; > 100 µM in the experiment with SK-OV-3 ovarian; > 100 µM with MDA-MB-231 breast; > 100 µM with HT29 colon. Also, the TGI in the experiment on HCT-116 colon, in the experiment on HOP-62 NSCLC, in the experiment with NCI-H460 lung, in the experiment with NCI-H226 lung, with MDA-MB-435 and in the experiment with RPMI-8226 leukemia was > 100 µM in each case. In addition, in the experiment with RXF 393 renal, the TGI is > 100 µM.

For the molecule `O=C1/C(=C/c2ccc(OC(=O)c3ccc(Cl)cc3)cc2)CCC/C1=C\c1ccc(OC(=O)c2ccc(Cl)cc2)cc1`, the TGI with BT-549 breast, in the experiment on HL-60(TB) leukemia, in the experiment on MDA-MB-231 breast, in the experiment on HT29 colon, with HCT-116 colon and in the experiment with HOP-62 NSCLC was > 100 µM in each case. In addition, the TGI in the experiment on NCI-H460 lung, with MDA-MB-435 and in the experiment on RPMI-8226 leukemia was > 100 µM throughout.

Consider `O=C(/C=C/c1ccccc1Br)c1ccccc1`, for which the TGI in the experiment with BT-549 breast came to 26.4 µM; in the experiment with HL-60(TB) leukemia, 3.07 µM; with SK-OV-3 ovarian it was 30.5 µM; with MDA-MB-231 breast it was 27.5 µM; with HT29 colon it was 9.42 µM; in the experiment with HCT-116 colon, 3.85 µM. Moreover, the TGI in the experiment with HOP-62 NSCLC was found to be 26.2 µM; with NCI-H460 lung, 16.3 µM; with A498 renal it was 11.1 µM; in the experiment with NCI-H226 lung, 36.6 µM; in the experiment with MDA-MB-435, 6.57 µM; with RXF 393 renal, 20.1 µM.

Consider `Cn1c(-c2cccs2)cc(-c2ccsc2)c1-c1cccs1`, for which the TGI with MALME-3M melanoma, in the experiment with BT-549 breast, with SK-OV-3 ovarian, in the experiment on MDA-MB-231 breast, with HT29 colon and with HCT-116 colon was > 100 µM in each case. Moreover, the TGI in the experiment with HOP-62 NSCLC, with NCI-H460 lung, in the experiment on A498 renal, with NCI-H226 lung, with MDA-MB-435 and in the experiment with RXF 393 renal was > 100 µM in each case.
